Measured values taken from patent US20070264349A1, “Nano-structured compositions and methods of making and using the same” (Novavax, Inc., priority 2006, published 2007).

Key:
[1] = cited from earlier work
[2] = Particle size measurement (Coulter particle sizer LS230); type: physicochemical; details: for mean size of nanoemulsion droplets comprising the active ingredient: after high-pressure homogenization, 10,000 psi (Examples 1, 2, 4); for particle size of a significant portion / almost all of the particles: formulations comprising ethanol (Tables 5 and 6), FIG. 10, FIG. 11; for mean particle size of raw active ingredient: before particle size reduction
Text: A Coulter particle sizer LS230 was used to measure particle size.

[3] = after high-pressure homogenization (Examples 1, 4, 7)
[4] = after high-pressure homogenization, 10,000 psi (Examples 5, 6, 7)

Compound	solubility in water [1]	size below which 100% of the particles lie [2, 3]	mean size of nanoemulsion droplets comprising the active ingredient [2]	milled mean particle size [2, 4]	particle size of a significant portion / almost all of the particles [2]	mean particle size of raw active ingredient [2]	other results
CN1CCCC1c1cccnc1 (stereo not drawn) [Nicotine, S-3-(1-methyl-2-pyrrolidinyl) pyridine]	freely water-soluble						
Nc1nc2c(ncn2COCCO)c(=O)[nH]1 [acyclovir, 2-amino-1,9-dihydro-9-[(2-hydroxyethoxy)methyl]-6H-purin-6-one]	moderately soluble	less than 3 microns	132 nm	about 2 microns	less than 0.1 microns	54 μm	size below which 100% of the particles lie ([2]; after particle size reduction (FIG. 2, FIG. 4)): less than 3 μm; particle size of a significant portion of the particles ([2]; formulation comprising N-methyl-pyrrolidinone (Table 4), FIG. 9, bimodal): less than 0.4 microns
NCCCC(O)(P(=O)(O)O)P(=O)(O)O [alendronic acid]						190-210 μm	milled mean particle size ([2]; after high-pressure homogenization, 10,000 psi (Example 3)): about 0.2 μm
C[C@]12CC[C@@H]3c4ccc(O)cc4CC[C@H]3[C@@H]1CC[C@@H]2O [estradiol, estra-1,3,5(10)-triene-3,17β-diol]			about 93 nm			about 542 microns	
O=C(c1ccc(OCCN2CCCCC2)cc1)c1c(-c2ccc(O)cc2)sc2cc(O)ccc12 [raloxifene]	very slightly soluble	below 10 microns		2.79 microns		15-30 μm	
[R—[R*,R*-(E)]]-cyclic(L-alanyl-D-alanyl-N-methyl-L-leucyl-N-methyl-L-leucyl-N-methyl-L-valyl-3-hydroxy-N, 4-dimethyl-L-2-amino-6-octenoyl-L-α-amino-butyryl-N-methylglycyl-N-methyl-L-leucyl-L-valyl-N-methyl-L-leucyl) [cyclosporine]					less than 1 microns		
